Source: PubChem BioAssay (NCI)
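Results reflect a 48-hour exposure of cells in 96-well plates to compound at five concentrations. At the TGI there is no net growth.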

Columns and labels:
Experiment in all cases: DTP human tumour cell line panel, 48 h
[1] = tested on: 786-0 renal
[2] = tested on: A498 renal
[3] = tested on: A549 NSCLC
[4] = tested on: ACHN renal
[5] = tested on: BT-549 breast
[6] = tested on: CAKI-1 renal
[7] = tested on: CCRF-CEM leukemia
[8] = tested on: COLO 205 colon
[9] = tested on: DU-145 prostate
[10] = tested on: EKVX NSCLC
[11] = tested on: HCC-2998 colon
[12] = tested on: HCT-116 colon
[13] = tested on: HCT-15 colon
[14] = tested on: HL-60(TB) leukemia
[15] = tested on: HOP-62 NSCLC
[16] = tested on: HOP-92 NSCLC
[17] = tested on: HS 578T breast
[18] = tested on: HT29 colon
[19] = tested on: IGROV1 ovarian
[20] = tested on: K-562 leukemia
[21] = tested on: KM12 colon
[22] = tested on: LOX IMVI melanoma
[23] = tested on: M14 melanoma
[24] = tested on: MCF7 breast
[25] = tested on: MDA-MB-231 breast
[26] = tested on: MDA-MB-435
[27] = tested on: MDA-N
[28] = tested on: MOLT-4 leukemia
[29] = tested on: NCI-H226 lung
[30] = tested on: NCI-H23 lung
[31] = tested on: NCI-H460 lung
[32] = tested on: NCI-H522 lung
[33] = tested on: NCI/ADR-RES ovarian
[34] = tested on: OVCAR-3 ovarian
[35] = tested on: OVCAR-4 ovarian
[36] = tested on: OVCAR-5 ovarian
[37] = tested on: OVCAR-8 ovarian
[38] = tested on: PC-3 prostate
[39] = tested on: RPMI-8226 leukemia
[40] = tested on: RXF 393 renal
[41] = tested on: SF-268 CNS
[42] = tested on: SF-295 CNS
[43] = tested on: SF-539 CNS
[44] = tested on: SK-MEL-2 melanoma
[45] = tested on: SK-MEL-28 melanoma
[46] = tested on: SK-MEL-5 melanoma
[47] = tested on: SK-OV-3 ovarian
[48] = tested on: SN12C renal
[49] = tested on: SNB-19 CNS
[50] = tested on: SNB-75 CNS
[51] = tested on: SW-620 colon
[52] = tested on: T-47D breast
[53] = tested on: TK-10 renal
[54] = tested on: U251 CNS
[55] = tested on: UACC-257 melanoma
[56] = tested on: UACC-62 melanoma
[57] = tested on: UO-31 renal
[58] = tested on: MALME-3M melanoma

O=C(Oc1c(Cl)cc(C2(c3cc(Cl)c(OC(=O)c4ccccc4)c(Cl)c3)CCCCC2)cc1Cl)c1ccccc1
TGI [1]: 27.5 µM
TGI [2]: 24.1 µM
TGI [3]: 37.1 µM
TGI [4]: 17.6 µM
TGI [5]: 27.9 µM
TGI [6]: 18.5 µM
TGI [7]: 30.1 µM
TGI [8]: 19.6 µM
TGI [9]: 36.7 µM
TGI [10]: 24.9 µM
TGI [11]: 22.9 µM
TGI [12]: 25.9 µM
TGI [13]: 24.6 µM
TGI [14]: 23.5 µM
TGI [15]: 33.9 µM
TGI [16]: 21.8 µM
TGI [17]: 32.4 µM
TGI [18]: 30 µM
TGI [19]: 23.4 µM
TGI [20]: 31 µM
TGI [21]: 23.9 µM
TGI [22]: 29.1 µM
TGI [23]: 30.3 µM
TGI [24]: 25.2 µM
TGI [25]: 27.3 µM
TGI [26]: 24.7 µM
TGI [27]: 25.6 µM
TGI [28]: 20.7 µM
TGI [29]: 42.5 µM
TGI [30]: 23.4 µM
TGI [31]: 26.1 µM
TGI [32]: 29.3 µM
TGI [33]: 27.1 µM
TGI [34]: 27.9 µM
TGI [35]: 32.3 µM
TGI [36]: 27.4 µM
TGI [37]: 34.1 µM
TGI [38]: 21.3 µM
TGI [39]: 33.3 µM
TGI [40]: 25.9 µM
TGI [41]: 27.2 µM
TGI [42]: 28.6 µM
TGI [43]: 29.2 µM
TGI [44]: 23.9 µM
TGI [45]: 29.3 µM
TGI [46]: 22.9 µM
TGI [47]: 31.2 µM
TGI [48]: 28.2 µM
TGI [49]: 35.4 µM
TGI [50]: 26.9 µM
TGI [51]: 39.5 µM
TGI [52]: 37.2 µM
TGI [53]: 30.4 µM
TGI [54]: 26.8 µM
TGI [55]: 26.1 µM
TGI [56]: 22.5 µM
TGI [57]: 35.3 µM

O=C(c1ccccc1Cl)n1oc2ccccc2c1=O
TGI [1]: > 100 µM
TGI [2]: > 100 µM
TGI [3]: > 100 µM
TGI [4]: > 100 µM
TGI [5]: > 100 µM
TGI [6]: > 100 µM
TGI [7]: 74 µM
TGI [8]: > 100 µM
TGI [9]: > 100 µM
TGI [10]: > 100 µM
TGI [12]: > 100 µM
TGI [13]: > 100 µM
TGI [14]: 51 µM
TGI [15]: > 100 µM
TGI [16]: > 100 µM
TGI [17]: > 100 µM
TGI [18]: > 100 µM
TGI [19]: > 100 µM
TGI [20]: > 100 µM
TGI [21]: > 100 µM
TGI [22]: > 100 µM
TGI [23]: > 100 µM
TGI [58]: > 100 µM
TGI [24]: > 100 µM
TGI [25]: > 100 µM
TGI [26]: > 100 µM
TGI [27]: > 100 µM
TGI [28]: 51.3 µM
TGI [29]: > 100 µM
TGI [31]: > 100 µM
TGI [32]: > 100 µM
TGI [33]: > 100 µM
TGI [34]: > 100 µM
TGI [35]: > 100 µM
TGI [36]: > 100 µM
TGI [37]: > 100 µM
TGI [38]: > 100 µM
TGI [39]: 68.8 µM
TGI [40]: > 100 µM
TGI [41]: > 100 µM
TGI [42]: > 100 µM
TGI [43]: > 100 µM
TGI [44]: > 100 µM
TGI [45]: > 100 µM
TGI [46]: > 100 µM
TGI [47]: > 100 µM
TGI [48]: > 100 µM
TGI [49]: > 100 µM
TGI [50]: > 100 µM
TGI [51]: > 100 µM
TGI [52]: > 100 µM
TGI [53]: > 100 µM
TGI [54]: > 100 µM
TGI [55]: > 100 µM
TGI [56]: > 100 µM
TGI [57]: > 100 µM
